{"source": "patent US10653672B2", "about": "“Myogenesis promotor, muscle atrophy inhibitor, medical composition and TAZ activator” (National University Corporation Tokyo Medical and Dental …, priority 2014, dated 2020)", "key": {"[1]": {"target": "T1, interaction of TAZ and MyoD (Homo sapiens, UniProt Q9GZV5)", "T1 construct": "expressed in transfected cells; host or cells: HEK 293 (human embryonic kidney cells)", "T1 sequence (Q9GZV5 whole entry)": "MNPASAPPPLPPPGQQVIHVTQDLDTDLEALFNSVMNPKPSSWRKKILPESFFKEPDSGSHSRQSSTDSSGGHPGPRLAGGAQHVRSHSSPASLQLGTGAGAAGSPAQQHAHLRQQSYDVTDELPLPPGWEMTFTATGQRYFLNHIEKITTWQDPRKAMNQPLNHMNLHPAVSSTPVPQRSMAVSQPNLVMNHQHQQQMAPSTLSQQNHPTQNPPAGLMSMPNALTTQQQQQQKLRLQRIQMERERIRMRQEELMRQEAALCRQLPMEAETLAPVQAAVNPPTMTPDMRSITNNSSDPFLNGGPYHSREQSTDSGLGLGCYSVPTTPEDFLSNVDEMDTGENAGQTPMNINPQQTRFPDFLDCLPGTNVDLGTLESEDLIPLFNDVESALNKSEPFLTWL", "assay": "Immunoprecipitation of FLAG-TAZ and HA-MyoD in HEK 293 cells", "assay_type": "cell-based", "settings": "HEK 293 expressing FLAG-TAZ and HA-MyoD", "description": "(2) For analyzing the effects of IBS008738 on the interaction of TAZ and MyoD, immunoprecipitation was performed on human embryonic kidney cells (HEK 293) expressing FLAG-TAZ and HA-MyoD, with anti-FLAF M2 beads."}, "Balb/c ByJ mice": {"test_system": "Balb/c ByJ mice", "assay": "Recovery of cardiotoxin-induced muscle damage", "assay_type": "in vivo, mouse", "settings": "intraperitoneal injection of 100 mM stock on days 2, 4 and 6 after cardiotoxin; day 7", "description": "Experiments were conducted with mice according to procedures approved by the Institutional Animal Case and Use Committee (see FIG. 9A to 9F). For the experiments, Balb/c ByJ mice (6 weeks, female) were used. The bar in the figures is 50 μm. The line and the error bar indicate the average value and the standard error, *p<0.05, i.e refers to intramuscular injection, and i.p refers to intraperitoneal injection.\n(1) Cardiotoxin was diluted to 10 μM with phosphate buffered saline (PBS). The cardiotoxin solution (100 μl) was added with 0.3 μL of DMSO, or 0.3 μL of 10 mM IBS008738 stock solution in DMSO, respectively, and the solution was injected to the anterior tibial muscles on the right and the left, respectively. Three mice were used for one experiment, and the experiment was performed twice. The mice were sacrificed at day 5. […]\n(3) Observation of muscle tissues was performed by fixing the anterior tibial muscle with 4% formalin and embedding the same in paraffin or O.C.T. compound, and staining muscle sections of 5 μm with haematoxylin and eosin. Further, Pax 7 was detected with anti-Pax 7 antibody and visualized with 3,3′-diaminobenzidine. […] The number of the Pax7-positive cells and the number of the centrally nucleated muscle fibers were counted at 6 fields at 20-fold magnification. […]"}, "Pax3 reporter": {"test_system": "Pax3 reporter", "assay": "Luciferase reporter assay, Pax3 reporter", "assay_type": "cell-based", "settings": "Mus musculus, C2C12, 24 h, C2C12 cells expressing reporter and TAZ WT, differentiation medium 24 hours", "description": "The effect and its degree on the activity of a reporter, derived from a transcription factor that interacts with TAZ in C2C12 cells, were evaluated. Specifically, C2C12 cells expressing luciferase reporters corresponding to MyoD, TEAD, SMAD and Pax3 and C2C12 cells expressing these luciferase reporters and TAZ were cultured in a culture medium added with IBS008738 or DMSO at a concentration of 10 μM, respectively. […] The line and the error bar indicate the average value and the standard error, *p<0.05, **p<0.01, ns refers to not significant.\nTransfection of the luciferase reporters was performed to the C2C12 cells after being plated at 12-well plates (1×10^5 cells/well) and cultured overnight. As the luciferase reporters, pGL3 Myo-184- (MyoD-), 8×GT-IIC-δ51LucII- (TEAD-), 9×CAGA-MLP-(SMAD-), and p(PRS-1/-4)3- (Pax3-) were transfected to the cells alone or with TAZ. These reporter vectors were from Keiji Miyazawa (Yamanashi University), Hiroshi Sasaki (Kumamoto University) and Hiroki Kurihara (The University of Tokyo).\nImmediately after the transfection, DMSO or IBS008738 was added at a concentration of 10 μM, respectively. After growing the cells to confluence, the cells were transferred to a differentiation medium with DMSO or IBS008738, and cultured for 24 hours before the luciferase assay."}}, "data": [{"smiles": "Cc1ccc(-n2cnc(/N=C/N3CCOCC3)c2C(=O)c2ccccc2)cc1", "note": "[exemplary compound 1]", "values": [{"measurement": "interaction of TAZ and MyoD compared with DMSO", "setting": "[1]", "result": "slightly promoted"}, {"measurement": "number of the Pax7-positive cells compared with DMSO", "setting": "Balb/c ByJ mice", "result": "greater"}, {"measurement": "number of the centrally nucleated muscle fibers compared with DMSO", "setting": "Balb/c ByJ mice", "result": "greater"}, {"measurement": "fold induction at 10 µM", "setting": "Pax3 reporter", "result": 0.8}]}]}
